# Laboratory results published in PubChem BioAssay AID493002 (Sanford-Burnham Center for Chemical Genomics, 2010).
# System: S. cerevisiae tim23-1 mutant growth, luminescence
# Experiment: tim23-1 mutant yeast growth inhibitors, dose response, luminescence, uHTS hits (AID 493002);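 further: yeast grown roughly 22 hours at 25 °C before the luminescence read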
row,Compound,IC50
1,O=C(N/N=C/C(Cl)=C\c1ccccc1)c1cccs1,4.85 µM
2,COc1ccc(NC(=O)C#Cc2ccccc2)cc1,6.06 µM
3,CCCCC(=O)Nc1ccc(NC(=O)c2cccs2)cn1,18.8 µM
4,COc1ccc(/C=N/NC(=O)c2cccs2)c2ccccc12,13.7 µM
5,Cc1cccc(OCCN2C(=O)C(=O)c3cc(C)ccc32)c1,9.52 µM
6,Cc1cc(C(=O)COC(=O)c2ccc([N+](=O)[O-])o2)c(C)n1CC1CCCO1 (centres undefined),10.1 µM
7,O=C(NCCCc1ccccc1)Nc1cccc(Cl)c1,9.3 µM
8,COC(=O)N/N=C/c1ccc(-c2cc(Cl)cc(Cl)c2)o1,8.73 µM
9,COc1cc(NC(=O)c2cccs2)ccc1NC(=O)c1ccccc1Cl,6.75 µM
10,CC[C@@]1(c2ccccc2OC)ON(c2ccccc2C(F)(F)F)C1=O,5.91 µM
11,CCOC(=O)c1c(-c2ccccc2)oc2ccc(O)cc12,7.92 µM
12,Cn1c(C=O)c(C#Cc2ccccc2)c2ccccc21,6.21 µM
13,COc1ccc(C(C[N+](=O)[O-])c2c(-c3ccccc3)cc3ccccn23)cc1 (centres undefined),8.82 µM
14,COc1cccc(C(=O)Nc2ccccc2)c1,9.33 µM
15,Cc1ccc(O)c(N=Cc2cc(Cc3ccccc3)cc([N+](=O)[O-])c2O)c1,10.6 µM
16,O=C(Nc1cccc(F)c1)N1CC=C(c2ccc(Cl)cc2)CC1,12.8 µM
17,O=C(Nc1oc2ccc(Cl)cc2c(=O)c1-c1ccc(F)cc1)c1ccco1,17.1 µM
18,N#C/C(=C\c1ccc(Cl)cc1)C(=O)Nc1cccnc1,5.72 µM
19,O=C(Nc1ccc(-c2ccc(N3CCCCC3)nn2)cc1)c1ccco1,10 µM
20,O=C(NC1CCCCC1)c1c(O)nc2sccn2c1=O,16.4 µM
21,CC(C)OC(=O)c1cccnc1SCc1cc(=O)n2ccccc2n1,9.68 µM
22,O=Cc1cn(CCOc2ccccc2F)c2ccccc12,13 µM
23,O=C(Nc1ccc2oc(-c3ccccc3)nc2c1)c1cccs1,0.39 µM

row,Compound,IC50
1,COCCNC(=O)/C(C#N)=C/c1ccc(OCc2ccccc2)cc1,9.3 µM
2,C=CCN=c1scc(-c2ccco2)n1/N=C/c1ccc(O)c(O)c1O,16.1 µM
3,CCN(CC)c1ccc(/C=C2/C(=O)ON=C2C)cc1,14.6 µM
4,CN(C)c1c2ccccc2nc2c(F)c(F)c(F)c(F)c12,16.6 µM
5,Cc1ccc(-c2nnc(N3CCC(C)CC3)c3ccccc23)cc1,13.7 µM
6,O=C(NCc1cccnc1)/C(=C\c1ccc(-c2ccc(Br)cc2)o1)S(=O)(=O)c1ccccc1,4.25 µM
7,Cc1ccc2[nH]c3ccccc3c(=O)c2c1,13.6 µM
8,O=C1c2ccccc2C(=O)N1c1nc(-c2cccs2)cs1,3.63 µM
9,Cn1c(=O)c(C(=O)Nc2ncccn2)c(O)c2ccccc21,8.49 µM
10,COc1ccc2c(c1)OC[C@H]1[C@H]2N2C(=O)c3cc(C)ccc3NC(=O)[C@@]2(C)[C@H]1c1ccccc1,13.1 µM
11,CC(C)Oc1cc(O)c2c(=O)c(-c3ccc(O)cc3)coc2c1,7.38 µM
12,Oc1ccccc1-c1cc(-c2cccc(F)c2)n[nH]1,13.2 µM
13,Cc1ccc2occ(/C=N/NC(=O)c3ccccc3Br)c(=O)c2c1,9.7 µM
14,O=C(Nc1ccc(Br)c(Cl)c1)C1CC1,18.3 µM
15,CC1=CC(C)(C)N(C(=O)c2ccc(F)cc2)c2cc3c(cc21)OCO3,14.3 µM
16,COc1ccc(/C=C/C(=O)Nc2ccc3c(c2)CCC3)cc1OC,8.81 µM
17,COc1ccc(CCn2c(C(C)C)nc3oc4ccccc4c(=O)c3c2=O)cc1,14.2 µM
18,O=C(Nc1ccc(Nc2ccccc2)cc1)c1ccc(Cl)c([N+](=O)[O-])c1,6.25 µM
19,COc1cccc(NC(=O)c2ccccc2)c1,11.3 µM
20,Oc1ccccc1-c1cc(-c2ccccc2)n[nH]1,15.8 µM
21,C/C(=N\Nc1ccc([N+](=O)[O-])cc1)c1ccc(O)cc1,5.17 µM
22,Cc1oc2cc(O)cc(O)c2c(=O)c1-c1ccc2c(c1)OCCCO2,8.84 µM
23,N=c1c2c(-c3ccccc3)c(-c3ccccc3)n(Cc3ccco3)c2ncn1Cc1ccco1,9.92 µM

row,Compound,IC50
1,COc1ccc(C(=O)c2sc(Nc3ccccc3F)nc2N)cc1,8.51 µM
2,O=C(N/N=C/C(Br)=C/c1ccccc1)c1ccccc1F,12.3 µM
3,O=C(CSc1cccc[n+]1[O-])Nc1ccccc1Oc1ccccc1,3.98 µM
4,COc1ccc(-c2nc3ccccc3[nH]2)cc1,18 µM
5,COc1ccc2c(C(=O)CCl)c[nH]c2c1,22.5 µM
6,Cc1ccn(-c2ccc(NC(=O)c3cccs3)cc2)n1,7.04 µM
7,Cc1ccc(Nc2nc(-c3sc(N)nc3C)cs2)cc1,13.4 µM
8,CCCCc1cc(O)c(CCCC)c(O)c1,3.69 µM
9,Cn1c(/C(C#N)=C/c2ccncc2)nc2ccccc21,16.3 µM
10,COc1ccc(O)c(-c2cc(-c3cccs3)[nH]n2)c1,12.4 µM
11,Cc1ccc2c(c1)C(=O)N1[C@H]3c4ccccc4OC[C@@H]3[C@H](c3ccccc3)[C@]1(C)C(=O)N2,4.99 µM
12,O=C(c1cc(-c2ccc(O)cc2)on1)N1CCCc2ccccc21,12.9 µM
13,CCN(CC)c1ccc(C(=O)N/N=C/c2ccccc2OC(F)F)cc1,15.1 µM
14,Cc1ccccc1C(=O)Oc1cccc2c(O)cccc12,8.53 µM
15,COc1cc2c3c(c1)C(C)CC(C)(C)N3C(=O)C2=O (centres undefined),27.2 µM
16,C/C=C/c1ccc(OCCOc2cc(C=O)ccc2OC)c(OC)c1,8.44 µM
17,O=C1NC(=S)SC1=C1CCCCCC1,7.78 µM
18,O=C(/C=C/c1ccco1)Nc1scc(-c2ccccc2)c1C(=O)O,13.6 µM
19,Cc1cc(Nc2ccccc2)nn1C(=O)c1ccccc1,12 µM
20,COc1ccc(C2=NNC(c3cccs3)=Nc3ccc(OC)cc32)cc1,11.1 µM
21,O=C(Oc1ccc(=O)n(-c2ccccc2)n1)c1ccc(Cl)cc1,11.8 µM
22,CN=c1scc(-c2cccs2)n1/N=C/c1ccc(O)c(O)c1O,10.5 µM
23,Cc1nc2c(n1C1CCCCC1)C(=O)c1ccccc1C2=O,10.8 µM

row,Compound,IC50
1,O=C(Nc1ccc2nc(-c3ccc(Br)o3)[nH]c2c1)c1ccco1,5.88 µM
2,O=CN(/C=C1\Sc2ccccc2C1=O)Cc1ccccc1,7.02 µM
3,CCc1sc(C(=O)Nc2ccc3c(c2)OCO3)cc1C,19.2 µM
4,O=C(N/N=C/C=C\c1ccco1)c1cccs1,8.95 µM
5,CCc1ccc(C2CC(=O)NC(SCC(=O)OC(C)C)=C2C#N)cc1 (centres undefined),18.2 µM
6,Cc1nc(-c2ccc(NC(=O)C3CC3)cc2)cs1,20.2 µM
7,Cc1cccc(N2C(=O)c3ccc(Br)cc3C2=O)n1,12.7 µM
8,Cc1cc2cc(CNC(=O)c3ccc(C)c([N+](=O)[O-])c3)ccc2[nH]1,9.14 µM
9,Cc1ccc(-c2nc(CNC(=O)c3cc(C)on3)cs2)cc1,15 µM
10,Oc1ccc(N=Nc2ccccc2)cc1,15.3 µM
11,O=C(Nc1scc(-c2ccccc2)c1C(=O)O)c1ccccc1F,12.2 µM
12,N#C/C(=C\c1cc(Cl)cc(Cl)c1O)C(=O)NC1CCCCC1,10 µM
13,O=C(Nc1ccc2nc(-c3ccc(Br)o3)[nH]c2c1)c1cccs1,1.35 µM
14,CC1CCc2c(sc3nc(C(C)(C)C)nc(N4CCN(C(=O)CCl)CC4)c23)C1 (centres undefined),8.61 µM
15,CCOC(=O)c1cccnc1SCc1cc(=O)n2ccccc2n1,9.96 µM
16,Nc1cc([N+](=O)[O-])cc2oc(-c3ccccc3)cc12,13.1 µM
17,Cc1ccc(-c2nnc(C)c(N3CCCC3)n2)cc1,16.6 µM
18,Nc1c(C(=O)Nc2ccc3c(c2)OCCO3)nnn1Cc1ccccc1Cl,12.4 µM
19,CC(=O)Nc1cccc(-c2cc(-c3c(Cl)cccc3Cl)no2)c1,11.1 µM
20,NC(=O)c1c(NC(=O)c2ccccc2F)sc2c1CCCC2,38.3 µM
